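Cultured in 96-well plates, cells were exposed to test compound for 48 hours across five concentrations. At the GI50, growth is halved.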 Active and inactive are the calls of the source. Cut-off read from the data, not from the text of the source: active = GI50 up to about 1.1 µM and inactive = higher.
Key:
Assay in all cases: NCI anticancer screen, dose series, 48 h
A498 = tested on: A498
OVCAR-5 = tested on: OVCAR-5
SK-OV-3 = tested on: SK-OV-3
M14 = tested on: M14
A549 = tested on: A549
RPMI-8226 = tested on: RPMI-8226
HCT-116 = tested on: HCT-116
DU-145 = tested on: DU-145
SF-539 = tested on: SF-539
MCF7 = tested on: MCF7
UACC-257 = tested on: UACC-257
SF-268 = tested on: SF-268
NCI-H522 = tested on: NCI-H522
HT-29 = tested on: HT-29
SW-620 = tested on: SW-620
TK-10 = tested on: TK-10
HOP-92 = tested on: HOP-92
HOP-62 = tested on: HOP-62
KM12 = tested on: KM12
PC-3 = tested on: PC-3
SK-MEL-28 = tested on: SK-MEL-28
NCI-H460 = tested on: NCI-H460
HCT-15 = tested on: HCT-15
SF-295 = tested on: SF-295
T47D = tested on: T47D
Malme-3M = tested on: Malme-3M
NCI-H23 = tested on: NCI-H23
786-0 = tested on: 786-0
RXF 393 = tested on: RXF 393
HCC 2998 = tested on: HCC 2998
BT-549 = tested on: BT-549
NCI-H226 = tested on: NCI-H226
OVCAR-3 = tested on: OVCAR-3
MOLT-4 = tested on: MOLT-4
HL-60 = tested on: HL-60
MDA-MB-435 = tested on: MDA-MB-435
SK-MEL-5 = tested on: SK-MEL-5
Hs-578T = tested on: Hs-578T
SNB-19 = tested on: SNB-19
ACHN = tested on: ACHN
UACC-62 = tested on: UACC-62
IGROV-1 = tested on: IGROV-1
SN12C = tested on: SN12C
OVCAR-4 = tested on: OVCAR-4
NCI/ADR-RES = tested on: NCI/ADR-RES
K562 = tested on: K562
U-251 = tested on: U-251
SR = tested on: SR
SNB-75 = tested on: SNB-75
UO-31 = tested on: UO-31
SK-MEL-2 = tested on: SK-MEL-2
OVCAR-8 = tested on: OVCAR-8
MDA-N = tested on: MDA-N
EKVX = tested on: EKVX
LOX IMVI = tested on: LOX IMVI
COLO 205 = tested on: COLO 205
CAKI-1 = tested on: CAKI-1
MDA-MB-231 = tested on: MDA-MB-231
CCRF-CEM = tested on: CCRF-CEM

SMILES: CCC(C)C1NC(=O)C(NC(=O)c2c3nc4c(C(=O)NC5C(=O)NC(C(C)CC)C(=O)N6CCCC6C(=O)N(C)CC(=O)N(C)C(C(C)C)C(=O)OC5C)ccc(C)c4oc-3c(C)c(=O)c2O)C(C)OC(=O)C(C(C)C)N(C)C(=O)CN(C)C(=O)C2CCCN2C1=O (stereo not drawn)
- GI50 (A498): 2840 nM (inactive)
- GI50 (OVCAR-5): 11600 nM (inactive)
- GI50 (SK-OV-3): 11500 nM (inactive)
- GI50 (M14): 4200 nM (inactive)
- GI50 (A549): 2470 nM (inactive)
- GI50 (RPMI-8226): 902 nM (active)
- GI50 (HCT-116): 550 nM (active)
- GI50 (DU-145): 5780 nM (inactive)
- GI50 (SF-539): 838 nM (active)
- GI50 (MCF7): 1110 nM (active)
- GI50 (UACC-257): 3300 nM (inactive)
- GI50 (SF-268): 3770 nM (inactive)
- GI50 (NCI-H522): 295 nM (active)
- GI50 (HT-29): 1060 nM (active)
- GI50 (SW-620): 1090 nM (active)
- GI50 (TK-10): 10200 nM (inactive)
- GI50 (HOP-92): 6760 nM (inactive)
- GI50 (HOP-62): 2990 nM (inactive)
- GI50 (KM12): 1630 nM (inactive)
- GI50 (PC-3): 3990 nM (inactive)
- GI50 (SK-MEL-28): 5240 nM (inactive)
- GI50 (NCI-H460): 174 nM (active)
- GI50 (HCT-15): 16600 nM
- GI50 (SF-295): 3610 nM (inactive)
- GI50 (T47D): 2840 nM (inactive)
- GI50 (Malme-3M): 1980 nM (inactive)
- GI50 (NCI-H23): 5410 nM (inactive)
- GI50 (786-0): 3370 nM (inactive)
- GI50 (RXF 393): 2540 nM (inactive)
- GI50 (HCC 2998): 3160 nM (inactive)
- GI50 (BT-549): 5810 nM (inactive)
- GI50 (NCI-H226): 881 nM (active)
- GI50 (OVCAR-3): 3240 nM (inactive)
- GI50 (MOLT-4): 1010 nM (active)
- GI50 (HL-60): 2810 nM (inactive)
- GI50 (MDA-MB-435): 4920 nM (inactive)
- GI50 (SK-MEL-5): 4210 nM (inactive)
- GI50 (Hs-578T): 4490 nM (inactive)
- GI50 (SNB-19): 11500 nM (inactive)
- GI50 (ACHN): 4890 nM (inactive)
- GI50 (UACC-62): 1140 nM (inactive)
- GI50 (IGROV-1): 239 nM (active)
- GI50 (SN12C): 1170 nM (inactive)
- GI50 (OVCAR-4): 14300 nM (inactive)
- GI50 (NCI/ADR-RES): 21900 nM (inactive)
- GI50 (K562): 740 nM (active)
- GI50 (U-251): 1050 nM (active)
- GI50 (SR): 119 nM (active)
- GI50 (SNB-75): 2620 nM (inactive)
- GI50 (UO-31): 10400 nM (inactive)
- GI50 (SK-MEL-2): 2070 nM (inactive)
- GI50 (OVCAR-8): 1600 nM (inactive)
- GI50 (MDA-N): 4210 nM (inactive)
- GI50 (EKVX): 14200 nM (inactive)
- GI50 (LOX IMVI): 532 nM (active)
- GI50 (COLO 205): 1350 nM (inactive)
- GI50 (CAKI-1): 10300 nM (inactive)
- GI50 (MDA-MB-231): 1250 nM (inactive)
- GI50 (CCRF-CEM): 499 nM (active)

SMILES: COC[C@H]1C(=O)NCC(=O)N2N=CCC[C@H]2C(=O)N(O)[C@H](C)C(=O)O[C@@H](C(C)C)[C@H](NC(=O)[C@@](C)(O)[C@]2(O)CC[C@@H](CC(C)C)[C@H](C)O2)C(=O)N2NCCC[C@@H]2C(=O)N1O
- GI50 (A498): 41.2 nM (active)
- GI50 (OVCAR-5): 17.8 nM (active)
- GI50 (SK-OV-3): 27.3 nM (active)
- GI50 (M14): 18.3 nM (active)
- GI50 (A549): 19 nM (active)
- GI50 (RPMI-8226): 20.8 nM (active)
- GI50 (HCT-116): 13.4 nM (active)
- GI50 (DU-145): 34.3 nM (active)
- GI50 (SF-539): 17.2 nM (active)
- GI50 (MCF7): 16.8 nM (active)
- GI50 (UACC-257): 18.4 nM (active)
- GI50 (SF-268): 16.3 nM (active)
- GI50 (NCI-H522): 17.8 nM (active)
- GI50 (HT-29): 17.2 nM (active)
- GI50 (SW-620): 15.7 nM (active)
- GI50 (TK-10): 21.8 nM (active)
- GI50 (HOP-92): 17.4 nM (active)
- GI50 (HOP-62): 17.5 nM (active)
- GI50 (KM12): 13.4 nM (active)
- GI50 (PC-3): 17.5 nM (active)
- GI50 (SK-MEL-28): 17.4 nM (active)
- GI50 (NCI-H460): 16.6 nM (active)
- GI50 (HCT-15): 120 nM
- GI50 (SF-295): 19.3 nM (active)
- GI50 (T47D): 22.8 nM (active)
- GI50 (Malme-3M): 17.1 nM (active)
- GI50 (NCI-H23): 16.3 nM (active)
- GI50 (786-0): 17.4 nM (active)
- GI50 (RXF 393): 17.2 nM (active)
- GI50 (HCC 2998): 16.9 nM (active)
- GI50 (BT-549): 16.6 nM (active)
- GI50 (NCI-H226): 19.7 nM (active)
- GI50 (OVCAR-3): 18.3 nM (active)
- GI50 (MOLT-4): 16.4 nM (active)
- GI50 (HL-60): 14.8 nM (active)
- GI50 (MDA-MB-435): 16.4 nM (active)
- GI50 (SK-MEL-5): 15.6 nM (active)
- GI50 (Hs-578T): 17.9 nM (active)
- GI50 (SNB-19): 16.3 nM (active)
- GI50 (ACHN): 32.4 nM (active)
- GI50 (UACC-62): 17.6 nM (active)
- GI50 (IGROV-1): 15.7 nM (active)
- GI50 (SN12C): 18.5 nM (active)
- GI50 (OVCAR-4): 16.8 nM (active)
- GI50 (NCI/ADR-RES): 316 nM (active)
- GI50 (K562): 20 nM (active)
- GI50 (U-251): 16.8 nM (active)
- GI50 (SR): 14 nM (active)
- GI50 (SNB-75): < 10.9 nM (active)
- GI50 (UO-31): 169 nM (active)
- GI50 (SK-MEL-2): 16.4 nM (active)
- GI50 (OVCAR-8): 18.5 nM (active)
- GI50 (MDA-N): 18 nM (active)
- GI50 (EKVX): 29.2 nM (active)
- GI50 (LOX IMVI): 17.8 nM (active)
- GI50 (COLO 205): 17.5 nM (active)
- GI50 (CAKI-1): 133 nM (active)
- GI50 (MDA-MB-231): 19.1 nM (active)
- GI50 (CCRF-CEM): 21.6 nM (active)

Source: ChEMBL document CHEMBL1201862, “PubChem BioAssay data set” (2004)
